Reference: US11203582B2, “Benzamide derivatives for inhibiting endoplasmic reticulum (ER) stress” (The Board of Regents of the University of Oklahoma, priority 2017, dated 2021)
pEC50, pIC50: −log10 of the molar value. Read-outs that look alike come from different tables or passages of the source.

Tests used:
Assay type in all cases: cell-based, rat
[1] = system: CHOP mRNA; assay: qRT-PCR of CHOP mRNA in INS-1 cells
Description: (A, B) INS-1 cells were treated with or without Tm (0.1 μg/mL) in the presence of 13d or DMSO for 8 h. ATF4 (A) and CHOP (B) mRNA levels were analyzed by qRT-PCR. Relative mRNA levels were normalized against the housekeeping gene Cyclophilin A using the comparative CT method. The results were expressed as the fold-increase over mRNA levels in untreated control cells and are the means of 3 replicate wells and representative of 3 independent experiments. ** P<0.01 compared with Tm treatment alone. Bar indicates SD. (C-E) INS-1 cells were treated with or without Tm (0.1 μg/mL) in the presence of 13d or DMSO for 8 hATF4 and CHOP protein levels were determined by Western blotting (C). α-Tubulin was used as an internal control. Quantification of ATF4 (D) and CHOP (E) protein levels was analyzed by ImageJ program, which was normalized by α-Tubulin protein level. The data shown are representative of 3 independent experiments.
Having established that compound 13d restores ER stress-impaired β-cell survival and function, we next investigated the mechanism of action by which 13d protects β-cells against ER stress. Chronic or severe ER stress activates all three branches of the UPR, PERK, IRE1α, and ATF6, leading to eventual cell death. First, we determined the effect of 13d on the activation of the PERK pathway in β-cells under ER stress. PERK activation phosphorylates eukaryotic translation initiator factor 2α (eIF2α), which in turn allows for the up-regulation of activating transcription factor 4 (ATF4) and of the pro-apoptotic gene C/EBP-homologous protein (CHOP). Thus, we used ATF4 and CHOP expression levels as markers of PERK pathway activation. […]
INS-1 cells were seeded at 4×10^5 cells/well in 6-well plates and treated with compounds for the indicated times. […] Relative mRNA levels were normalized against the housekeeping gene Cyclophilin A and were determined by ΔΔCt calculated from the difference in ΔCt values between the target gene and Cyclophilin A with and without treatment, based on comparative CT (cycle threshold) method. […]

[2] = system: INS-1 cells; assay: Cell survival assay, intracellular ATP (CellTiter-Glo), INS-1 cells treated with Tm
Description: A structure-activity-relationship (SAR) study was thus conducted to improve the weak potency of lead compound 1. Newly synthesized or commercially available compounds were tested for their β-cell-protective activity against ER stress in rat INS-1 β-cells. […] The maximum activities and the concentrations that reach half-maximal activity (EC50) of the compounds were evaluated by the degree of increase in viability of INS-1 cells co-treated with the compounds in the presence of Tm compared with Tm treatment alone. Maximum activity value in the tables is reported as % rescue from Tm (0.1 μg/mL)-induced reduction of cell viability. The values for Tm treatment alone and control (DMSO, without Tm) treatment are designated as 0% and 100%, respectively in all tables. EC50 values (the concentrations that reach half-maximal activity) for INS-1 cell viability were calculated with GraphPad Prism from the data of ten 2-fold serial titration points in all tables. All experiments were performed in triplicate in all tables.
INS-1 cells were cultured in RPMI 1640 (Corning, N.Y., USA) supplemented with 10% FBS (Atlanta Biologicals, Norcross, Ga.), HEPES (10 mM, Life Technologies, CA, USA), sodium pyruvate (1 mM, Corning), 2-mercaptoethanol (50 μM, Sigma, St Louis, Mo., USA) and antibiotics (100 UI/mL penicillin and 100 μg/mL streptomycin, Corning). βTC6 cells were cultured in DMEM (Corning) with 15% FBS, sodium pyruvate (1 mM, Corning), non-essential amino acids (1 mM, Thermo, Ill., USA), GlutaMAX (1 mM, Life Technologies) and antibiotics (100 UI/mL penicillin and 100 μg/mL streptomycin). All cells were grown at 37° C. in a humidified 5% CO2 atmosphere.
INS-1 cells or βTC6 cells were seeded at 3×10^3 cells/well in a 384-well plate and treated with compounds at the indicated concentrations. After 3 d treatment, the medium was aspirated and 20 μL/well of CellTiter-Glo reagent (Promega, WI, USA) was added for the detection of intracellular ATP levels. Cell viability was measured with an EnVision multilabel plate reader (PerkinElmer, MA, USA).

[3] = system: cleaved caspase-3; assay: Western blotting of cleaved caspase-3 in Tm-treated INS-1 cells; conditions: Tm co-treatment, 24 h
Description: To determine whether the increase in β-cell viability following treatment with 13d is caused by a suppression of apoptotic cell death, several apoptosis-related makers were measured. First, levels of cleaved caspase-3 and cleaved PARP were assayed by Western blotting. Caspase-3, a member of executioner caspases activated by cleavage, plays essential roles in initiating apoptotic signaling and executing the final stages of cell death, whereas the nuclear enzyme poly (ADP-ribose) polymerase (PARP) plays an important role in a number of cellular processes involving DNA repair and cell death. […] However, upon severe ER stress, caspase 3 undergoes proteolytic cleavage to produce two subunits that dimerize to form the active enzyme, which in turns cleaves PARP. […] A further assessment of apoptotic INS-1 cell death was performed using TUNEL assays to detect nuclear DNA fragmentation (a consequence of cell apoptosis) in situ.
INS-1 cells were seeded in 60-mm dishes at 8×10^5 cells/dish and treated for the indicated times. Cells were then washed with PBS and lysed with lysis buffer (Cell Signaling Technology, Danvers, Mass.) containing EDTA (Thermo, Ill.) and phosphatase inhibitors (Thermo). Aliquots of 20 μg total protein were separated on 7% SDS-PAGE gels (Life Technologies) and transferred to PVDF membranes (Life Technologies). […]

O=C(NCc1ccc(C(F)(F)F)cc1)c1cccc(CN2CCCCC2)c1 [Compound 13d, N-(4-trifluoromethylphenmethyl)-3-(N-piperidinyl)methyl benzamide]
Tm-induced increase in CHOP mRNA level ([1]; Tm 0.1 μg/mL co-treatment, 8 h): almost completely abolished
pIC50 ([1]; Tm, 8 h, read-out: IC50 for inhibition of Tm-induced CHOP expression): 7.43
effect on CHOP mRNA level on its own ([1]; without Tm): no effect
range of concentrations retaining maximum β-cell-protective activity ([2]; INS-1 cells, Tm 0.1 μg/mL, 72 h, FIG. 2A): 0.16 to 20 µM
maximum activity (β-cell-protective activity) ([2]; INS-1 cells, Tm-induced ER stress): ~100%
pEC50 ([2]; INS-1 cells, Tm-induced ER stress, read-out: EC50): 7.49
effect of compound on its own on β-cell viability ([2]; INS-1 cells, no Tm, 72 h, FIG. 2D): no effect
Maximum activity (% rescue) ([2]; Table 5, INS-1 cells, Tm 0.1 μg/mL, 72 h, Tm alone 0%, DMSO control 100%): 97% ± 8%
viability of INS-1 β-cells under Tm treatment (intracellular ATP) ([2]; Tm 0.1 μg/mL, 72 h, FIG. 2A): rescued the viability of INS-1 β-cells under Tm treatment in a dose-dependent manner
pEC50 ([2]; running text b108, read-out: EC50 value against ER stress): ~7.52
Tm-induced cleavage of caspase-3 [3]: completely or significantly diminished
